According to patent publication US7709701B2, “Genetic manipulation of condensed tannins” (The Samuel Roberts Noble Foundation, priority 2004, dated 2010):

What was measured:
[1] = target: AtBAN (Arabidopsis thaliana BAN) protein (Arabidopsis thaliana, UniProt Q9SEV0); type: biochemical; conditions: for Products formed on incubation with AtBAN protein extract: NADPH as coenzyme, 4-month old frozen protein extracts, HPLC
[2] = tested on: MtBAN (Medicago truncatula BAN homolog) protein; experiment: Anthocyanidin reductase activity assay with recombinant MtBAN protein extract (HPLC of products); type: biochemical; conditions: for Products formed on incubation with MtBAN protein extract: NADPH, 100 mM Tris-HCl pH 7.0, 30° C., 30 min, HPLC
[3] = target: T1, anthocyanidin reductase (Vitis vinifera, UniProt Q5FB34); experiment: Anthocyanidin reductase assay with desalted crude enzyme from grape fruit skin; type: biochemical; conditions: 1 mM NADPH, 100 μM cyanidin, 30° C., 30 min
T1 construct: 100 μM cyanidin and 50-25 μg desalted crude enzyme; from tissue; host or cells: skin of mature grape fruit
T1 sequence (Q5FB34 whole entry R248Q): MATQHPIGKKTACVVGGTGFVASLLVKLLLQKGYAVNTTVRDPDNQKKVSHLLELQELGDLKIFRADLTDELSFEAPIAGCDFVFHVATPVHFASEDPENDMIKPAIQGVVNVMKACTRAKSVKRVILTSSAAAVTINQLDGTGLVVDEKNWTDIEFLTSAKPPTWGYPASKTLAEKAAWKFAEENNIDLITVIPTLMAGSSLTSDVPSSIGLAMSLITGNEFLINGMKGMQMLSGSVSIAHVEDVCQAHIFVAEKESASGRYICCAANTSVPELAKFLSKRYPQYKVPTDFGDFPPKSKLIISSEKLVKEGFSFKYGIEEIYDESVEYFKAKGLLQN
Method: (§1) Lotus corniculatus, Desmodium uncinatum and Barley cv. Morex were grown in a greenhouse. Young leaves from L. corniculatus, unexpanded leaves, and young pods as well as open flowers and flower buds from D. uncinatum, and young grains from Barley were collected. Seed testas of barley grains were excised and pooled together for enzyme extraction. Mature grape fruit stored at −80° C. was treated in pH 7 100 mM Tris.HCl buffer for 30 seconds for isolating the skin for enzyme extraction.
(§2) A fresh one-gram leaf sample of L. corniculatus, one-gram testa from barley, and 9 grams of grape fruit skin, as well as two grams of flowers, 3 grams of young pods and 3 grams of young unexpanded leaves from Desmodium uncinatum, were independently ground into fine powders in liquid nitrogen. The follow buffer systems were used for enzyme extraction. Extraction buffer 1: pH 7 100 mM Tris.HCl, 10% glycerol and 2 mM 1,4-dithiothreitol; Extraction buffer 2: pH 8 50 mM phosphate buffer, 10% glycerol, 1.5% polyethyleneglycol 4000 (PEG-4000), 2 mM pH 8.0 Na-EDTA, 25 mM sodium ascorbate, 20 mM β-mecaptoenthanol, and 5 mM 1,4-dithiothreitol; Extraction buffer 3: pH 8 100 mM Tris.HCl, 10% glycerol 1.5% polyethyleneglycerol 4000 (PEG-4000), 2 mM pH 8.0 Na-EDTA, 25 mM sodium ascorbate, 80 mM β-mecaptoenthanol, and 5 mM 1,4-dithiothreitol. […]

[4] = tested on: anthocyanidin reductase; experiment: Anthocyanidin reductase assay with desalted crude enzyme from Desmodium uncinatum flowers, leaves and young pods; type: biochemical; conditions: 1 mM NADPH, 100 μM cyanidin, 30° C., 30 min
Method: as §1, §2

[5] = tested on: anthocyanidin reductase; experiment: Anthocyanidin reductase assay with desalted crude enzyme from barley testa; type: biochemical, Hordeum vulgare; conditions: 1 mM NADPH, 100 μM cyanidin, 30° C., 30 min
Method: as §1, §2

[6] = tested on: anthocyanidin reductase; experiment: Anthocyanidin reductase assay with desalted crude enzyme from Lotus corniculatus leaves; type: biochemical; conditions: 1 mM NADPH, 100 μM cyanidin, 30° C., 30 min
Method: as §1, §2

[7] = reactions containing leucoanthocyanidins

AtBAN (Arabidopsis thaliana BAN) protein, sequence (Q9SEV0 other isoform, or with tags, fused parts or gaps K55Q/I146L/V156I/E157D/T179K/K185E): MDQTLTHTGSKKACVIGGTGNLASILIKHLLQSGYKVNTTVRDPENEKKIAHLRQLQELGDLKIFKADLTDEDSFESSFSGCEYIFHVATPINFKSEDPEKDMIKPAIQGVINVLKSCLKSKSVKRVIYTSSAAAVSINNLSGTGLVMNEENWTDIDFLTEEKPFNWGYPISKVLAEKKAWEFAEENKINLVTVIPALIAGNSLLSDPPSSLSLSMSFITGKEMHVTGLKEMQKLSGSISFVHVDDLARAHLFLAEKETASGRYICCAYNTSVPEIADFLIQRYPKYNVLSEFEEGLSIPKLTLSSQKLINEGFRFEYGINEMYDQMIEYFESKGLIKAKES

Row | Compound | Products formed on incubation with AtBAN protein extract [1] | Products formed on incubation with MtBAN protein extract [2] | also measured
1 | Oc1cc(O)c2c(c1)O[C@H](c1ccc(O)c(O)c1)[C@@H](O)C2 [(+)-catechin] | does not produce (2S,3R) configuration (−) catechin or (−)epicatechin | does not produce (2S,3R) configuration (−) catechin or (−)epicatechin | –
2 | Oc1cc(O)c2c(c1)O[C@H](c1ccc(O)c(O)c1)[C@H](O)C2 [(−)epicatechin, (−)-epicatechin] | does not produce (2S,3R) configuration (−) catechin or (−)epicatechin | does not produce (2S,3R) configuration (−) catechin or (−)epicatechin | –
3 | NC(=O)C1=CN([C@@H]2O[C@H](COP(=O)(O)OP(=O)(O)OC[C@H]3O[C@@H](n4cnc5c(N)ncnc54)[C@H](O)[C@@H]3O)[C@@H](O)[C@H]2O)C=CC1 [NADH] | – | – | Conversion with NADH relative to the level achieved with NADPH ([2]; NADH 2 mM final concentration substituted for NADPH): approximately 50%
4 | Oc1cc(O)c2cc(O)c(-c3ccc(O)c(O)c3)[o+]c2c1.[Cl-] [cyanidin, cyanidin chloride] | catalyze the reduction of cyanidin to epicatechin | reducing cyanidin to the corresponding flavan-3-ols, catechin and epicatechin | Product formed by grape fruit skin enzyme [3]: converted cyanidin into epicatechin; Product formed by Desmodium uncinatum flower, leaf and young pod enzyme [4]: converted cyanidin into epicatechin; Product formed by barley testa enzyme [5]: converted cyanidin into epicatechin; Product formed by Lotus corniculatus leaf enzyme [6]: converted cyanidin into epicatechin
5 | Oc1cc(O)c2cc(O)c(-c3cc(O)c(O)c(O)c3)[o+]c2c1 [delphinidin, delphinidin chloride] | delphinidin into gallocatechin | catalyzed the reduction of delphinidin into putative gallo-catechin and epi-gallocatechin | –
6 | Oc1ccc(-c2[o+]c3cc(O)cc(O)c3cc2O)cc1 [pelargonidin, Pelargonidin chloride] | pelargonidin into epi-alfzelechin | catalyzed the reduction of pelargonidin into a new compound eluting at 33.6 min | –
7 | leucoanthocyanidins | – | – | LAR activity with recombinant AtBAN [1, 7]: no LAR activity was observed; LAR activity with recombinant MtBAN [2, 7]: no LAR activity was observed
